System: PBMCs
Experiment: IL-2 ELISpot of in vitro expanded PBMCs
Assay type: cell-based, human
Details: peptides from other AAV serotypes; PBMCs from four healthy individuals; Figure S11

FTVDNNGLY [AAV1 (6)_713-721 N718]
IL-2 response / secretion: decreased IL-2 response
